This note sets out measurements from patent US11324762B2, “Deuterated derivatives of psilocybin and uses thereof” (Lennham Pharmaceuticals, Inc., priority 2020, dated 2022).

Holding throughout (assay type): in vitro ADME
Data set [1] in a line: metabolic stability and metabolite formation in human hepatocytes. The note with it: 1.0 million viable cells/ml, 37° C., 0-60 min. On the procedure: (§1) A study was conducted to assess the metabolic stability and metabolite formulation of psilocin and d10-psilocin (the compound of Formula (IB-1)) in human hepatocytes under the conditions set forth in Table 1.
The next data set relates to human hepatocytes. The data set is described as above. Conditions: 1 μM, 60 min. On the procedure:
as §1

The target of data set [2] is T1, human MAO-A (Homo sapiens, UniProt P21397).
T1 sequence (P21397 1-527): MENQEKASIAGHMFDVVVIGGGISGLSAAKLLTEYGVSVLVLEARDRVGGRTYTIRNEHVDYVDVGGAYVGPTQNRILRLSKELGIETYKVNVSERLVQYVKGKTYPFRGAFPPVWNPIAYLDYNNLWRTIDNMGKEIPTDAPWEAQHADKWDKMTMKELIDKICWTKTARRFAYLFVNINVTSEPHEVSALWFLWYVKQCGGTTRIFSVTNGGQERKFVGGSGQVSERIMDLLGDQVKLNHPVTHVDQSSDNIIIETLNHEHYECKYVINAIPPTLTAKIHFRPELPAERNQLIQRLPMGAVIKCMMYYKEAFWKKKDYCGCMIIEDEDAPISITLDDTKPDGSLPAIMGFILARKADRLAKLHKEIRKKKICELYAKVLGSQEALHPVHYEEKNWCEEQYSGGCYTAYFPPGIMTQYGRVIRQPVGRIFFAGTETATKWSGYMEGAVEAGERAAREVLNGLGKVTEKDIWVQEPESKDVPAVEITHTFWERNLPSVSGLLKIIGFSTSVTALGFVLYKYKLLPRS
Nature of the data set: metabolism of psilocin and d10-psilocin by human MAO-A (Example 3). Conditions: 0.2 μM, protein 1 mg/ml, 0-30 min, FIG. 2. On the procedure:
A study was conducted to assess the metabolism of psilocin and d10-psilocin (the compound of Formula (IB-1)) by human MAO-A under the conditions set forth in Table 3.

The target in data set [3] is T1, human MAO-A. Nature of the data set: metabolism of psilocin by human MAO-A (Example 2). The note with it: 0.2 and 2 μM, protein 0.03-1 mg/ml, 0-30 min, FIGS. 1A & 1B.

Turning to `[2H]C([2H])([2H])N(C([2H])([2H])[2H])C([2H])([2H])C([2H])([2H])c1c[nH]c2cccc(O)c12` [d10-psilocin], the half-life at 1 μM in data set [1] was 4.97 h. In the data set on human hepatocytes, the “metabolite 4-hydroxy-indole-3-acetic acid after 60-minute incubation” value is reported as “undetected” and the “parent remained after the 60-minute incubation” value is listed as “approximately 84%”. Moreover, the “rate of metabolism by human MAO-A compared with psilocin” value at human MAO-A [2] is on record as “metabolized more slowly by human MAO-A than psilocin”.
With `CN(C)CCc1c[nH]c2cccc(O)c12` [psilocin, 4-hydroxy-N,N-dimethyltryptamine], in data set [1], the half-life at 1 μM came to 2.97 h. Besides, the “parent remained after the 60-minute incubation” value in the data set on human hepatocytes is “approximately 78%”. The “metabolism by human MAO-A” value at human MAO-A [3] was “metabolized by human MAO-A”.
